Laboratory results published in US20260034112A1, “MULTI-CYCLIC IRAK1 AND IRAK4 INHIBITING COMPOUNDS AND USES THEREOF” (CHILDREN'S HOSPITAL MEDICAL CENTER, priority 2022, published 2026).
Like-named read-outs stand apart in the source and are kept apart here.

System: THP1 cells
Type: cell-based, human
Details: PF-06650833 vs DMSO in THP1 cells

CC[C@@H]1[C@H](F)C(=O)N[C@@H]1COc1nccc2cc(C(N)=O)c(OC)cc12 [PF-06650833, Zimlovisertib]
Log(FC) (gene ACVR1C): −0.6723 | Log(FC) (gene ADPGK-AS1): −0.6683 | Log(FC) (gene ALDH1A3): −0.6705 | Log(FC) (gene APOBR): −0.6497 | Log(FC) (gene APOC1): −0.67 | Log(FC) (gene AQP3): −0.6432 | Log(FC) (gene ARHGAP25): −0.5895 | Log(FC) (gene ARRDC3-AS1): −0.5996 | Log(FC) (gene ASGR2): −0.631 | Log(FC) (gene BMP8B): −0.6206 | Log(FC) (gene BPI): −0.6416 | Log(FC) (gene C1QL4): −0.5987 | Log(FC) (gene C1orf226): −0.604 | Log(FC) (gene C1orf228): −0.634 | Log(FC) (gene C3): −0.6607 | Log(FC) (gene C19orf35): −0.675 | Log(FC) (gene C19orf59): −0.6476 | Log(FC) (gene C20orf197): −0.6914 | Log(FC) (gene CACNA2D3): −0.6049 | Log(FC) (gene CALHM2): −0.6575 | Log(FC) (gene CCDC78): −0.6022 | Log(FC) (gene CCL23): −0.6739 | Log(FC) (gene CD300LB): −0.5972 | Log(FC) (gene CENPH): −0.6701 | Log(FC) (gene DGKG): −0.6202 | Log(FC) (gene EVI2B): −0.6362 | Log(FC) (gene FAM111B): −0.6646 | Log(FC) (gene FAM161B): −0.6003 | Log(FC) (gene FAS): −0.6791 | Log(FC) (gene FAT4): −0.6913 | Log(FC) (gene FMO5): −0.639 | Log(FC) (gene FOS): −0.5974 | Log(FC) (gene FOSL1): −0.6175 | Log(FC) (gene GAPT): −0.6025 | Log(FC) (gene GIPC3): −0.6076 | Log(FC) (gene GNG12): −0.6632 | Log(FC) (gene GPR35): −0.6621 | Log(FC) (gene HSPA1L): −0.6007 | Log(FC) (gene HYDIN2): −0.6113 | Log(FC) (gene IL1R1): −0.6855 | Log(FC) (gene IL16): −0.667 | Log(FC) (gene IQGAP2): −0.5919 | Log(FC) (gene KCNA3): −0.6759 | Log(FC) (gene KIF21B): −0.6912 | Log(FC) (gene KLHL30): −0.6632 | Log(FC) (gene KREMEN2): −0.6258 | Log(FC) (gene LDOC1): −0.6494 | Log(FC) (gene LHFPL2): −0.6019 | Log(FC) (gene LINC01094): −0.6762 | Log(FC) (gene LOC81691): −0.6095 | Log(FC) (gene LOC339862): −0.6552 | Log(FC) (gene LOC100093631): −0.631 | Log(FC) (gene LOC100507642): −0.6508 | Log(FC) (gene LOC101927841): −0.6312 | Log(FC) (gene LOC101929119): −0.6138 | Log(FC) (gene LOC101929545): −0.5904 | Log(FC) (gene LOC102723883): −0.5967 | Log(FC) (gene MPEG1): −0.6879 | Log(FC) (gene MPO): −0.6316 | Log(FC) (gene MPZ): −0.5945 | Log(FC) (gene MTMR11): −0.6705 | Log(FC) (gene MUC19): −0.6358 | Log(FC) (gene NCALD): −0.6 | Log(FC) (gene NHLRC3): −0.66 | Log(FC) (gene NHSL2): −0.639 | Log(FC) (gene NMNAT2): −0.6786 | Log(FC) (gene PAX8): −0.674 | Log(FC) (gene PCED1B-AS1): −0.6355 | Log(FC) (gene PDCD4): −0.6069 | Log(FC) (gene PODNL1): −0.6661 | Log(FC) (gene PRTN3): −0.6776 | Log(FC) (gene PSTPIP1): −0.6238 | Log(FC) (gene RGS3): −0.6231 | Log(FC) (gene RPSAP9): −0.6104 | Log(FC) (gene RSPO1): −0.6269 | Log(FC) (gene S1PR3): −0.6476 | Log(FC) (gene S1PR5): −0.6503 | Log(FC) (gene SCIMP): −0.6308 | Log(FC) (gene SERPINA1): −0.615 | Log(FC) (gene SETBP1): −0.6709 | Log(FC) (gene SIM1): −0.6107 | Log(FC) (gene SLC2A3): −0.6056 | Log(FC) (gene SLC6A11): −0.6327 | Log(FC) (gene SLC9A7): −0.6539 | Log(FC) (gene SNORA73A): −0.6228 | Log(FC) (gene SNX10): −0.6217 | Log(FC) (gene SWT1): −0.6012 | Log(FC) (gene SYN3): −0.6041 | Log(FC) (gene SYTL1): −0.5922 | Log(FC) (gene TACC2): −0.6004 | Log(FC) (gene THBS4): −0.6785 | Log(FC) (gene TLR1): −0.6365 | Log(FC) (gene TMEM45A): −0.5913 | Log(FC) (gene TMEM238): −0.6139 | Log(FC) (gene TNFSF10): −0.6794 | Log(FC) (gene TNS1): −0.6915 | Log(FC) (gene TREM1): −0.6699 | Log(FC) (gene TRIM72): −0.6733 | Log(FC) (gene ZNF630): −0.6307 | Log(FC) (gene ZNF836): −0.606
